Consider 10 compounds from patent US5488049A, “Method of treating learning and memory disorders using benzothiadiazide derivatives as nootropic agents” (FIDIA - Georgetown Institute for the Neuro-Sciences, priority 1993, dated 1996).

Experiment [1] relates to rats. Kind of experiment: Water maze: drug action on alprazolam-disrupted learning behavior in rats. The experiment is classed as in vivo, rat. Particulars: for antagonism of alprazolam amnesic effect: doses equimolar to IDRA 21 / (+) IDRA 21. Here is the method:
Rats (male 250 g b.w.) were trained two days, once a day, in maze A (See insert A). […] Rats were exposed to a new maze configuration (Maze B) in 4 successive trials 15, 30, 45, and 60 min after the i.p. injections.
(§1) The water maze apparatus was adapted from Kant et al., (16), and consists of three concentric squares placed inside a 5 ft plastic pool (FIG. 6). The walls of the maze are 50 cm in height and are constructed from black opaque plastic to allow for tracking of the animal with an overhead camera. The alleys between the walls are 16 cm wide. In the center of each wall there is a removable doorway. The opening of doorways allows for the construction of mazes with an increasing number of potential error possibilities. (See diagram for Maze A and Maze B, FIG. 6). The maze is located in a room 10'×15' at constant temperature (18° C.) adjacent to the vivarium. The room is illuminated with overhead lights which also serve as spatial cues. Additional spatial cues are provided by the position of the investigator and a number of small white x's placed within specific locations upon the walls of the maze. The maze is filled with water (18°)C. to a depth of 25 cm.
(§2) Seven days prior to drug studies, rats were tested in Maze A (forced maze) on two consecutive days. Pretesting with the "forced" maze enabled the assessment of the animals' general motor, sensory and motivational abilities, and facilitated the exclusion of those animals unable to meet pretesting criteria. Performance was assessed by determining either swim time, errors committed, or path length measured with a computerized recording device. Errors are defined as whole body entry into alleys not leading directly to the exit platform (i.e., shaded portions in FIG. 6). Rats were excluded from the study if their swim path length and/or number of errors were two standard deviations above the mean […] of the entire group. During the first two trials, the rats were placed into the center of the maze and given a maximum of 180 secs to find the "exit platform" located at the "finish" (FIG. 6). The time required, the number of errors, and the path length were recorded for each trial. […] Rats meeting the criteria were randomly divided into groups. On the day of the experiment, a single trial was run (Maze A) in order to establish a baseline of performance. Following drug administration, the rats were again tested once on Maze A to establish a baseline of post-treatment performance. Following an additional interatrial interval of 30 min., the rats were tested on Maze B.
In these experiments, rats were trained in Maze B 15, 30, 45 and 60 min. after drug injection.

Experiment [2] concerns rats. Described as above. Type of experiment: in vivo, rat. Particulars: oral 5 mg/kg.
The subject of experiment [3] is AMPA receptors located on CAl pyramidal neuronal membranes. Description: Slow bath perfusion, whole-cell: potentiation of glutamate-elicited current (with MK-801) in CAl pyramidal neurons of hippocampal slices. The experiment is classed as cell-based, rat. Here is the method: (§3) Young rats (12-16 days old) were decapitated and the brains quickly removed and placed in ice-cold Ringer solution. Thin slices of hippocampus (250 μm) were then cut with a vibratome slicer (Lancer, St. Louis, Mo.) and kept in Ringer solution at 37° C. until use. The experiments were carried out at room temperature with the slice totally submerged in a 1 ml volume recording chamber and under continuous perfusion with Ringer solution at a rate of 6 ml/min using an upright Hoffman modulation contrast microscope (Carl Zeiss, Germany) equipped with a 40×water immersion objective.
(§4) Media and drug application. The external Ringer solution contained (in mM): NaCl 120; KCl 3.1; CaCl2 2; MgCl2 1; KH2 PO4 1; NaHCO3 26; glucose 2.7; and it was continuously bubbled with 95% O2 and 5% CO2. Patch pipettes were filled with a solution containing (in mM): K-gluconate 140; MgCl2 1; ATP.Mg 2; EGTA 0.5; HEPES-KOH 10, pH 7.2. All the drugs under investigation were applied through the recording chamber perfusion system via parallel inputs having a common entry into the chamber. Agonist application was attained using two different systems that allowed a slow or a rapid solution change. Slow solution changes were used during recordings in whole-cell configuration and were obtained by exchanging the solution of the recording chamber within a few seconds. Fast solution changes were obtained with the use of the Y-shaped tubing method that allows complete exchange of solution in less than 10 ms, and is described in detail by Murase et al. (1989).
IDRA compounds (see above for structures) were first dissolved in 50 μl of DMSO, then […] of 1N NaOH and water (sufficient to reach a volume of 1 ml and a concentration of 10 mM). The final concentration was reached diluting the stock solution with Ringer solution.
(§5) Ionic currents in whole-cell configuration and outside-out excised membrane patches were monitored using the patch clamp technique (15).
The action diazoxide and the IDRA analogues were tested on the desensitization of AMPA receptors located on CAl pyramidal neuronal membranes in rat hippocampal slices. In order to evaluate whether the compounds under study increase the intensity of currents generated by the activation of non-NMDA receptors, these receptors were activated with glutamate in the presence of 5 μM MK-801 to block completely the ionic current elicited by glutamate acting on the NMDA receptor channels present in CAl pyramidal neurons. Three distinct methods of drug application were employed: 1) slow bath perfusion of agonist and drugs while recording in whole-cell mode (onset 30s); ii) fast application to outside-out patches of a fixed concentration of agonist with a double barrel pipette (onset<1 ms) in the presence and the absence of drugs; iii) fast perfusion (onset<6 ms) of increasing concentrations of agonist and drugs applied with the Y-tubing device to outside-out patches excised from neurons in brain slices and to voltage-clamped neurons in primary culture.
. The most efficacious (1 mM) derivative was IDRA21, which elicited a potentiation of 797±220% (n=4 cells), followed by IDRA 20 with a potentiation of 292±100% (n=4 cells) (FIG. 2). […]

Experiment [4] has as its system animals and humans. Particulars: refs 1-3 (NMDA antagonists); refs 7-9 (aniracetam); cited from earlier work.
Experiment [5] has as its system AMPA receptor. Kind of experiment: Fast application with double barrel pipette: AMPA receptor desensitization in outside-out patches from CAl hippocampal pyramidal neurons. The experiment is classed as cell-based, rat. Particulars: 5 μM; 1 mM glutamate with 5 μM MK-801. Here is the method: as §3, §4
Briefly, a polyethylene tubing (1 mm i.d.) is bent in a U-shaped, and another fine polyethylene tubing (50 μi.d.) and 10 mm length) is inserted into a small hole in the U-tubing making the tip of the Y-tubing. Solutions are fed to the Y-tubing by gravity, and negative pressure facilitates exchange of the solution. The tip of the Y-tubing is positioned 100 μm from the cell investigated, and upon opening and closing of a valve that controls the negative pressure, it was possible to respectively change rapidly and apply a number of different test solutions. This method was used to apply agonists to excised outside-out membrane patches. More rapid drug applications were used to apply agonists to excised outside-out membrane patches, and were obtained through a double-barrelled pipette positioned close to the recording pipette containing the membrane patch. […] The agonist was applied for a period of 150 ms and the time necessary for a complete exchange of the solution was less than 1 ms as measured at the opening of a patch pipette containing different dilutions of the drugs under study. […]
Ionic currents in whole-cell configuration and outside-out excised membrane patches were monitored using the patch clamp technique (15). […]

In experiment [6] the test system is kainate-activated current. Kind of experiment: Selectivity: ionic current elicited by 20 μM kainate. Type of experiment: cell-based, rat. Particulars: for effect on kainate-activated current: 1 mM compound, 20 μM kainate; for effect on kainate responses at doses that decreased AMPA desensitization: all doses that decrease/inhibit AMPA desensitization. How it is done:
as §3, §4, §5

In experiment [7] the test system is rats. Description: Water maze: drug action on learning and retention in rats. The experiment is classed as in vivo, rat. Particulars: IDRA 21 15 mg/kg. Here is the method:
Rats (male, 250 g) were trained once a day in maze A (See FIG. 8B forced maze) for 2 consecutive days. The day of the experiment, after a first exposure to maze A, IDRA 21 (15 mg/kg) Aniracetam (500 mg/kg) or vehicle (cont) were administered per oral gavage and 30 min later the animals were exposed once again to Maze A. After 30 min of interatrial rest, rats were exposed to Maze B (see FIG. 8C open maze).
as §1, §2

Experiment [8] concerns AMPA receptor. Particulars: cited from earlier work.
The test system of experiment [9] is EPSCs elicited in CAl pyramidal neurons. Kind of experiment: Excitatory postsynaptic currents (EPSCs) in CAl pyramidal neurons in hippocampal slices on stimulation of Schaffer collateral afferents. Type of experiment: cell-based, rat. Particulars: in vitro; compared with (+) IDRA 21. How it is done: as §3, §5
Traces were filtered at 3 KHz (-3 dB, 8-pole, lowpass Bessel filter, Frequency Devices), and stored in an LSI 11/73 computer (INDEC System, Sunnyvale, Calif.) after digitization (10 KHz) with a Data Translation analog to digital converter. Decay time constants of EPSC and glutamate-activated currents were determined from exponential fitting with the 11/73 system by using an entirely automated least-squares procedures (see Vicini and Schuetze, 1985, for further details). This method uses a Simplex algorithm (Caceci and Cacheris, 1984) to fit the data to either a single or double exponential equation of the form I(t)=If exp(-t/tauf)+Is exp(-t/taus), where If and Is are the amplitudes of the sIPSC fast and slow components, and tauf and taus are their respective decay time constants. Peak amplitudes were measured at the absolute maximum of the currents, taking into account the noise of the baseline and noise around the peak. Rise times were measured as the time elapsed from 20 to 80% of the peak amplitude of the response.
The action of nootropic drugs on the excitatory postsynaptic currents (EPSCs) elicited in CAl pyramidal neurons in hippocampal slices was investigated by stimulation of the Schaffer collateral afferents.

“Also recorded” adds a separate entry of the source. Like-named read-outs stand apart in the source and are kept apart here. Bounds are passed on as bounds.

Consider `CC1Nc2ccc(Cl)cc2S(=O)(=O)N1` (single isomer, unassigned; (-)) [(-) IDRA 21], for which, in experiment [1] (summary statement), the “biological activity of enantiomers (summary)” value is “inactive”. Besides, the “prevention of alprazolam-induced amnesia (enantiomers)” value in experiment [2] is “inactive”.

As for `CC1Nc2cc(Cl)ccc2S(=O)(=O)N1` (stereo not shown) [IDRA 20, 6-chloro-3-methyl-3,4-dihydro-2H 1,2,4-benzothiadiazine S-S dioxide], the “potentiation of glutamate-elicited current” value in experiment [3] (1 mM compound, 50 μM glutamate, 5 μM MK-801, whole-cell, slow perfusion) is 292±100%.

In the case of `O=S1(=O)NC(C2CC3C=CC2C3)Nc2ccc(Cl)cc21` (stereo not shown) [IDRA 23, 6-chloro-3-bicyclo[2.2.1]-hept-2-ene-3,4-dihydro-2H 1,2,4-benzothiadiazine S-S dioxide], the “efficacy compared with diazoxide (potentiation of glutamate current), in words” value in experiment [3] (1 mM, 50 μM glutamate) is “either equally or less efficacious than diazoxide”.

As to `C[C@]12N[C@H](Cc3ccccc31)c1ccccc12` [MK-801], in [4], the “effect on learning and memory (background)” value (“effect on learning and memory” for short) is “produce profound alterations in learning, disrupt memory consolidation and retrieval in animals and man”.

For `NS(=O)(=O)c1cccc2c1c([N+](=O)[O-])cc1[nH]c(=O)c(=O)[nH]c12` [NBQX, 1,2,3,4-tetrahydroxy-6-nitro-2,3-dioxo-benzo-[f]quinoxaline-7-sulfonamide, reference compound], in experiment [5], the “block of transient peak and sustained plateau currents” value is on record as “completely blocked”.

Turning to `COc1ccc(C(=O)N2CCCC2=O)cc1` [aniracetam], in [6], the “effect on kainate-activated current” value is listed as “failed to potentiate the kainate-activated current” and the “effect on kainate responses at doses that decreased AMPA desensitization” value was “failed to affect kainate responses”. The “improvement of water maze performance” value in experiment [7] (FIG. 8A, Aniracetam 500 mg/kg oral) is “improve water performance in rats”. Moreover, the “significance (P) of water maze performance vs control” value in [7] (Aniracetam 500 mg/kg per oral gavage, at least 5 rats) was below 0.05. In [4], the “effect on learning and memory” value is “enhancing learning and memory (nootropic action) in animals”. Also, in [8], the “AMPA receptor desensitization / modulation (background)” value was “attenuating AMPA receptor spontaneous desensitization”; the “potency and duration of action (background)” value was “low potency and short lasting action”. The “AMPA receptor desensitization / modulation (background)” value in experiment [8] (listed as Aniracetam) is “decreases AMPA receptor desensitization”.

For the compound `NS(=O)(=O)c1cc2c(cc1Cl)N=CNS2(=O)=O` [chlorothiazide, reference compound], the “antagonism of alprazolam amnesic effect” value in experiment [1] was “inactive”.

Regarding `CC1=NS(=O)(=O)c2cc(Cl)ccc2N1` [diazoxide, reference compound], the “potentiation of glutamate current, in words” value in experiment [3] (100 μM) was “inactive”. In experiment [3] (500 μM compound, mean±SE, N=4 cells), the “potentiation of glutamate-elicited current” value is on record as 152±0.2%. Further, the “maximal efficacy reached, in words” value in experiment [3] (1 mM, maximal dose testable without vehicle effect) is given as “failed to reach maximal efficacy at 1 mM”. The “potentiation of glutamate current, dose dependence” value in experiment [3] (up to 1 mM) is “dose-dependent potentiation”. Also, in [6], the “effect on kainate-activated current” value is listed as “increased the current” and the “effect on kainate responses at doses that decreased AMPA desensitization” value was “potently potentiated kainate responses”. Also, the “efficacy in increasing excitatory synaptic strength in CAl pyramidal neurons” value in [9] was “at least as efficacious as (+) IDRA 21”. Also, the “antagonism of alprazolam amnesic effect” value in experiment [1] was “inactive; also recorded: unable to antagonize alprazolam-induced impairment of learning behavior”.

Regarding `CNC1(c2ccccc2Cl)CCCCC1=O` (stereo not shown) [ketamine], the “effect on learning and memory” value in experiment [4] was “produce profound alterations in learning, disrupt memory consolidation and retrieval in animals and man”.

`c1ccc(C2(N3CCCCC3)CCCCC2)cc1` [phencyclidine]: in experiment [4], the “effect on learning and memory” value is “produce profound alterations in learning, disrupt memory consolidation and retrieval in animals and man”.
